Structures can show the parent of a compound that is named as a salt.
biological target: T1, Full-length USP19 (Homo sapiens, UniProt O94966); assay: USP19 fluorescence polarisation (FP) assay, Ubiquitin-Lys-TAMRA substrate; assay type: biochemical; conditions: average of at least two duplicate experiments
T1 construct: Full-length USP19 was purchased from Boston Biochem (E-576); purchased Boston Biochem E-576
T1 sequence (O94966 1-1318): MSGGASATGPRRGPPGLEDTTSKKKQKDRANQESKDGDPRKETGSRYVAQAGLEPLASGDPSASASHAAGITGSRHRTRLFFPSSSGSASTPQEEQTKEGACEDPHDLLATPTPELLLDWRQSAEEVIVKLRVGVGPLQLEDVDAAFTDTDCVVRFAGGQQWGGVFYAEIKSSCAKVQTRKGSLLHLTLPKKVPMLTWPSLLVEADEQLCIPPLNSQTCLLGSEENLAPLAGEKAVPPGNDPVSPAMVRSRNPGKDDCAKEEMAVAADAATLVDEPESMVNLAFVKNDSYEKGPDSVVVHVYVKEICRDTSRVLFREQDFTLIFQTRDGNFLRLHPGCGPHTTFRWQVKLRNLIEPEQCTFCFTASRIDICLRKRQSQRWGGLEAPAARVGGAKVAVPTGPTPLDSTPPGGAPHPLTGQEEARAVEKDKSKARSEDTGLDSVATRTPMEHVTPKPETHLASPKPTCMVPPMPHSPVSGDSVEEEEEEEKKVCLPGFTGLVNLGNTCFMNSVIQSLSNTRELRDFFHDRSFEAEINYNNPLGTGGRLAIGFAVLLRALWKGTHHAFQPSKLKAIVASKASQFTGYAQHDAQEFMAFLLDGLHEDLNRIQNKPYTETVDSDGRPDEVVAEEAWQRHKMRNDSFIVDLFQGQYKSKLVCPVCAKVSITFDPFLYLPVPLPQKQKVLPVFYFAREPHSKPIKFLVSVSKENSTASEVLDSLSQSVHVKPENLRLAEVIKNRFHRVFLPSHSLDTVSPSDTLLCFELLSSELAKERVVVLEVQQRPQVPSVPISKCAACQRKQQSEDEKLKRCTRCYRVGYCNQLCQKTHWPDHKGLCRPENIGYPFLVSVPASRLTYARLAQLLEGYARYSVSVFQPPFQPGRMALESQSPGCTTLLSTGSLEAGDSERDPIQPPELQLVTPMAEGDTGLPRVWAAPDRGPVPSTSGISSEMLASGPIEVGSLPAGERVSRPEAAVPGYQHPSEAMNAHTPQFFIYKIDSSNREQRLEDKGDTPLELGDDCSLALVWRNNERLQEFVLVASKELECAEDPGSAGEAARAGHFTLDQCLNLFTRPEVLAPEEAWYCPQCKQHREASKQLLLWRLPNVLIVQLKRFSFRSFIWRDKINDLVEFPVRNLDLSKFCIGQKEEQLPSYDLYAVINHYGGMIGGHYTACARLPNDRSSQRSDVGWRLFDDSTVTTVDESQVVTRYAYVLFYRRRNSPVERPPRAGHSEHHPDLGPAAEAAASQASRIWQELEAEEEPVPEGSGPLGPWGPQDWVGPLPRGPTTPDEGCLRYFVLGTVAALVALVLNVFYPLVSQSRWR
Procedure, shortened: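 Fluorescence polarisation (excitation 530 nm, parallel and perpendicular emission at 575 nm) was recorded every 15 min for 90 min after adding the ubiquitin-Lys-TAMRA isopeptide (500 nM as dispensed). Beforehand, the full-length enzyme (2.5 nM as dispensed) sat 30 min at RT with compound diluted from 200 μM to 2 μM in HEPES pH 7.4 buffer with 150 mM NaCl, 5 mM DTT, 0.05% BSA and 0.05% CHAPS. Values normalised to uninhibited wells gave IC50s by non-linear fitting, each the mean of two or more duplicate runs.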

IC50 [nM]	SMILES
100 to 1000	O=C(N1CCC(Cn2cnc(-c3ccccc3)cc2=O)C2(CCCC2)C1)N1CCC[C@H]1c1ccccc1 (stereo partly drawn) [Example 8, 6-Phenyl-3-((7-((S)-2-phenylpyrrolidine-1-carbonyl)-7-azaspiro[4.5]decan-10-yl)methyl)pyrimidin-4(3H)-one]
100 to 1000	O=C(N1CCC(Cn2ccc(-c3ccccc3)cc2=O)CC1)N1CCNC[C@H]1c1ccccc1 [Example 6, (R)-4-Phenyl-1-((1-(2-phenylpiperazine-1-carbonyl)piperidin-4-yl)methyl)pyridin-2(1H)-one]
< 10	COc1ccccc1-c1ccn(C[C@@H]2CCN(C(=O)N3CC[C@@H](N)C[C@H]3c3ccccc3)CC23CCCC3)c(=O)c1 [Example 59, 1-(((R)-7-((2S,4R)-4-Amino-2-phenylpiperidine-1-carbonyl)-7-azaspiro[4.5]decan-10-yl)methyl)-4-(2-methoxyphenyl)pyridin-2(1H)-one]
10 to 100	N[C@@H]1CCN(C(=O)N2CCC(CN3Cc4nccn4CC3=O)C3(CCCC3)C2)[C@H](c2ccccc2)C1 (stereo partly drawn) [Example 42, 7-((7-((2S,4R)-4-Amino-2-phenylpiperidine-1-carbonyl)-7-azaspiro[4.5]decan-10-yl)methyl)-7,8-dihydroimidazo[1,2-a]pyrazin-6(5H)-one]
< 10	CN[C@@H]1CCN(C(=O)N2CC[C@@H](Cn3cnc(-c4ccccc4F)cc3=O)C3(CCCC3)C2)[C@H](c2cccc(F)c2F)C1 [Example 140, 3-(((R)-7-((2S,4R)-2-(2,3-Difluorophenyl)-4-(methylamino)piperidine-1-carbonyl)-7-azaspiro[4.5]decan-10-yl)methyl)-6-(2-fluorophenyl)pyrimidin-4(3H)-one]
< 10	CN[C@@H]1CCN(C(=O)N2CC[C@@H](Cn3ccc(-c4ccccc4OC)cc3=O)C3(CCCC3)C2)[C@H](c2ccccc2)C1 [Example 53, 4-(2-Methoxyphenyl)-1-(((R)-7-((2S,4R)-4-(methylamino)-2-phenylpiperidine-1-carbonyl)-7-azaspiro[4.5]decan-10-yl)methyl)pyridin-2(1H)-one]
< 10	CN[C@@H]1CCN(C(=O)N2CC[C@@H](Cn3ccc(-c4ccccc4)cc3=O)C3(CCCC3)C2)[C@H](c2cccc(F)c2)C1 [Example 64, 1-(((R)-7-((2S,4R)-2-(3-Fluorophenyl)-4-(methylamino)piperidine-1-carbonyl)-7-azaspiro[4.5]decan-10-yl)methyl)-4-phenylpyridin-2(1H)-one]
< 10	C[C@H]1CN(C(=O)N2CC[C@@H](Cn3cnc(-c4ccccc4)cc3=O)C3(CCCC3)C2)[C@H](c2cc(F)ccc2F)CO1 [Example 201, 3-(((R)-7-((2,5R)-5-(2,5-Difluorophenyl)-2-methylmorpholine-4-carbonyl)-7-azaspiro[4.5]decan-10-yl)methyl)-6-phenylpyrimidin-4(3H)-one]
< 10	N[C@@H]1CCN(C(=O)N2CC[C@@H](Cn3ccc(-c4ccccc4)cc3=O)C3(CCCC3)C2)[C@H](c2ccccc2)C1 [Example 23, 1-(((R)-7-((2S,4R)-4-Amino-2-phenylpiperidine-1-carbonyl)-7-azaspiro[4.5]decan-10-yl)methyl)-4-phenylpyridin-2(1H)-one]
< 10	CCN[C@@H]1CCN(C(=O)N2CC[C@@H](Cn3ccc(Cl)cc3=O)C3(CCCC3)C2)[C@H](c2cc(F)ccc2F)C1 [Example 179, 4-Chloro-1-(((R)-7-((2S,4R)-2-(2,5-difluorophenyl)-4-(ethylamino)piperidine-1-carbonyl)-7-azaspiro[4.5]decan-10-yl)methyl)pyridin-2(1H)-one]
< 10	Cc1ccccc1-c1ccn(C[C@@H]2CCN(C(=O)N3CC[C@@H](N)C[C@H]3c3ccccc3)CC23CCCC3)c(=O)c1 [Example 60, 1-(((R)-7-((2S,4R)-4-Amino-2-phenylpiperidine-1-carbonyl)-7-azaspiro[4.5]decan-10-yl)methyl)-4-(o-tolyl)pyridin-2(1H)-one]
< 10	CN[C@@H]1CCN(C(=O)N2CC[C@@H](Cn3ccc(-c4ccccc4F)cc3=O)C3(CCCC3)C2)[C@H](c2ccccc2)C1 [Example 55, 4-(2-Fluorophenyl)-1-(((R)-7-((2S,4R)-4-(methylamino)-2-phenylpiperidine-1-carbonyl)-7-azaspiro[4.5]decan-10-yl)methyl)pyridin-2(1H)-one]
< 10	CN[C@@H]1CCN(C(=O)N2CC[C@@H](Cn3cnc(-c4ccccc4F)cc3=O)C3(CCCC3)C2)[C@H](c2cc(F)ccc2F)C1 [Example 145, 3-(((R)-7-((2S,4R)-2-(2,5-Difluorophenyl)-4-(methylamino)piperidine-1-carbonyl)-7-azaspiro[4.5]decan-10-yl)methyl)-6-(2-fluorophenyl)pyrimidin-4(3H)-one]
< 10	CN[C@@H]1CCN(C(=O)N2CC[C@@H](Cn3cnc(-c4ccccc4)cc3=O)C3(CCCC3)C2)[C@H](c2ccc(F)cc2F)C1 [Example 94, 3-(((R)-7-((2S,4R)-2-(2,4-Difluorophenyl)-4-(methylamino)piperidine-1-carbonyl)-7-azaspiro[4.5]decan-10-yl)methyl)-6-phenylpyrimidin-4(3H)-one]
< 10	CN[C@@H]1CCN(C(=O)N2CC[C@@H](Cn3ccc(-c4ccccc4)cc3=O)C3(CCCC3)C2)[C@H](c2ccccc2)C1 [Example 48, 1-(((R)-7-((2S,4R)-4-(Methylamino)-2-phenylpiperidine-1-carbonyl)-7-azaspiro[4.5]decan-10-yl)methyl)-4-phenylpyridin-2(1H)-one]
< 10	CN[C@@H]1CCN(C(=O)N2CC[C@@H](Cn3cnc(C4CC4)cc3=O)C3(CCCC3)C2)[C@H](c2cc(F)ccc2F)C1 [Example 163, 6-Cyclopropyl-3-(((R)-7-((2S,4R)-2-(2,5-difluorophenyl)-4-(methylamino)piperidine-1-carbonyl)-7-azaspiro[4.5]decan-10-yl)methyl)pyrimidin-4(3H)-one]
100 to 1000	CN(C)[C@@H]1CCN(C(=O)N2CC[C@@H](Cn3cnc4ccc(F)cc4c3=O)C3(CCCC3)C2)[C@H](c2cc(F)cc(F)c2)C1 [Example 184, 3-(((R)-7-((2S,4R)-2-(3,5-Difluorophenyl)-4-(dimethylamino)piperidine-1-carbonyl)-7-azaspiro[4.5]decan-10-yl)methyl)-6-fluoroquinazolin-4(3H)-one hydrochloride]
10 to 100	C[C@H]1CN(C(=O)N2CC[C@@H](Cn3cnc4ccc(F)cc4c3=O)C3(CCCC3)C2)[C@H](c2cc(F)ccc2F)CO1 [Example 200, 3-(((R)-7-((2S,5R)-5-(2,5-Difluorophenyl)-2-methylmorpholine-4-carbonyl)-7-azaspiro[4.5]decan-10-yl)methyl)-6-fluoroquinazolin-4(3H)-one]
< 10	N[C@@H]1CCN(C(=O)N2CCC(Cn3cnc(C4CC4)cc3=O)C3(CCCC3)C2)[C@H](c2ccccc2)C1 (stereo partly drawn) [Example 29, 3-((7-((2S,4R)-4-Amino-2-phenylpiperidine-1-carbonyl)-7-azaspiro[4.5]decan-10-yl)methyl)-6-cyclopropyl-pyrimidin-4(3H)-one]
< 10	CN[C@@H]1CCN(C(=O)N2CC[C@@H](Cn3cnc(-c4ccccc4)cc3=O)C3(CCCC3)C2)[C@H](c2cc(F)cc(F)c2)C1 [Example 122, 3-(((R)-7-((2S,4R)-2-(3,5-Difluorophenyl)-4-(methylamino)piperidine-1-carbonyl)-7-azaspiro[4.5]decan-10-yl)methyl)-6-phenylpyrimidin-4(3H)-one]
